Reference: patent US12371454B2, “Cyclic peptide compound having Kras inhibitory action” (priority 2019, dated 2025)
Starred links: 1 amine or outer side, 2 acyl side, 3 side chain; linkers in the order of their positions; H or OH if unused. Positions of bridges follow the written chain, without caps; N, C: chain ends. Non-standard residues stand in square brackets, D forms with d. Residues, ends and D or L forms follow the SMILES beside them. *: point of attachment. hPhe(3-Cl-4-CF3) = N[C@@H](CCc1ccc(C(F)(F)F)c(Cl)c1)C(=O)O; NMePhe(4-CF3) = CN[C@@H](Cc1ccc(C(F)(F)F)cc1)C(=O)O; 3Oxa8azabicyclo(3.2.1)octane = C1CC2COCC1N2*; NMePhe(4-Me) = CN[C@@H](Cc1ccc(C)cc1)C(=O)O; X11 = CN([C@@H](CCc1cccnc1)C(=O)[*:2])[*:1]; X3 = CN([C@@H](CCc1ccncc1)C(=O)[*:2])[*:1]; NMeAla(cPent) = CN[C@@H](CC1CCCC1)C(=O)O; NMeGly(cPent) = CN[C@H](C(=O)O)C1CCCC1; NMeCha = CN[C@@H](CC1CCCCC1)C(=O)O; NMeChg = CN[C@H](C(=O)O)C1CCCCC1; Gly(cBu) = N[C@H](C(=O)O)C1CCC1; NMeD = CN[C@@H](CC(=O)O)C(=O)O; NMeL = CN[C@@H](CC(C)C)C(=O)O; NMeNva = CCC[C@H](NC)C(=O)O; NMeAbu = CC[C@H](NC)C(=O)O; NMeS = CN[C@@H](CO)C(=O)O; Morpholide = C1CN(*)CCO1; NMeA = CN[C@@H](C)C(=O)O; Pyrrolidide = C1CCN(*)C1; Ac5c = NC1(C(=O)O)CCCC1; Aze = O=C(O)[C@@H]1CCN1; Sar = CNCC(=O)O; Propyl = CCC*

Tests used:
[1] = molecular target: T1, Kras and SOS1 (biotin-tagged human Kras loaded with GDP, His-tagged human SOS1) (Homo sapiens, UniProt P01116, G12D); assay: Protein-protein interaction inhibition between Kras and SOS1 (KrasGl2D-SOS PPI) using AlphaScreen; format: binding; conditions: AlphaScreen; biotin-tagged human Kras loaded with GDP, His-tagged human SOS1; read-out: KRAS G12D-SOS PPI IC50
T1 construct: made in house; host or cells: E. coli (stated for Kras only)
T1 sequence (P01116 1-188 isoform P01116-2 G12D): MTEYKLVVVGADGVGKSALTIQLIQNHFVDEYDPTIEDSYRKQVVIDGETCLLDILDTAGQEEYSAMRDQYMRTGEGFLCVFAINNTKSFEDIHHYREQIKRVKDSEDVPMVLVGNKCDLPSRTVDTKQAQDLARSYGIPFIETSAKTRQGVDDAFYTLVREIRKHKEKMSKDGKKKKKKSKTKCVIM
In short: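 Energy transfer from nickel-chelate donor beads bound to His-SOS1 to streptavidin acceptor beads bound to biotin-Kras, expressed in E. coli and loaded with GDP after purification, was monitored. Donors were excited at 680 nm; singlet oxygen reaching acceptors gave emission read at 520-620 nm.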

[2] = test system: Human pancreatic cancer cell line AsPC-1; assay: Measurement of AsPC-1 cell growth inhibition (AsPC-1 CGI); format: cell-based; conditions: 96 h
In short: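 AsPC-1 cells in 15% FBS RPMI-1640 were exposed to test compound for 96 hours at 37° C, with CellTiter-Glo as endpoint.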

Row | Structure (SMILES) | IC50 [1] [µM] | IC50 [2] [µM]
1 | CCC[C@H]1C(=O)N[C@@H]([C@@H](C)CC)C(=O)N(C)CC(=O)N(C)CC(=O)N(C)[C@@H](Cc2ccc(C)cc2)C(=O)N(C)CC(=O)N[C@@H](CCc2ccc(C(F)(F)F)c(Cl)c2)C(=O)N2CCC[C@H]2C(=O)NC2(CCCC2)C(=O)N(C)[C@@H](C2CCCCC2)C(=O)N(C)[C@H](C(=O)N2CCOCC2)CC(=O)N1C [Compound 1871] ([NMeNva]I[Sar][Sar][NMePhe(4-Me)][Sar][hPhe(3-Cl-4-CF3)]P[Ac5c][NMeChg][NMeD]-Morpholide; lactam N-11) | 0.00048 | 0.02 to 0.05
2 | CC[C@H](C)[C@@H]1NC(=O)[C@H](CC(C)C)N(C)C(=O)C[C@@H](C(=O)N2CCOCC2)N(C)C(=O)[C@H](C2CCCCC2)N(C)C(=O)C2(CCCC2)NC(=O)[C@@H]2CCCN2C(=O)[C@H](CCc2ccc(C(F)(F)F)c(Cl)c2)NC(=O)CN(C)C(=O)[C@H](Cc2ccc(C)cc2)N(C)C(=O)CN(C)C(=O)CN(C)C1=O [Compound 1872] ([NMeL]I[Sar][Sar][NMePhe(4-Me)][Sar][hPhe(3-Cl-4-CF3)]P[Ac5c][NMeChg][NMeD]-Morpholide; lactam N-11) | 0.00065 | 0.02 to 0.05
3 | CC[C@H](C)[C@@H]1NC(=O)[C@H](CC)N(C)C(=O)C[C@@H](C(=O)N2C3CCC2COC3)N(C)C(=O)[C@H](C2CCCCC2)N(C)C(=O)C2(CCCC2)NC(=O)[C@@H]2CCCN2C(=O)[C@H](CCc2ccc(C(F)(F)F)c(Cl)c2)NC(=O)CN(C)C(=O)[C@H](CC2CCCC2)N(C)C(=O)CN(C)C(=O)CN(C)C1=O [Compound 1877] ([NMeAbu]I[Sar][Sar][NMeAla(cPent)][Sar][hPhe(3-Cl-4-CF3)]P[Ac5c][NMeChg][NMeD]-{3Oxa8azabicyclo(3.2.1)octane}; lactam N-11) | 0.00086 | 0.1 to 0.5
4 | CC(C)C[C@H]1C(=O)N[C@@H](C2CCC2)C(=O)N(C)CC(=O)N(C)CC(=O)N(C)[C@@H](CC2CCCCC2)C(=O)N(C)CC(=O)N[C@@H](CCc2ccc(C(F)(F)F)c(Cl)c2)C(=O)N2CCC[C@H]2C(=O)NC2(CCCC2)C(=O)N(C)[C@@H](C2CCCCC2)C(=O)N(C)[C@H](C(=O)N2C3CCC2COC3)CC(=O)N1C [Compound 1879] ([NMeL][Gly(cBu)][Sar][Sar][NMeCha][Sar][hPhe(3-Cl-4-CF3)]P[Ac5c][NMeChg][NMeD]-{3Oxa8azabicyclo(3.2.1)octane}; lactam N-11) | 0.00066 | 0.05 to 0.1
5 | CC[C@H](C)[C@@H]1NC(=O)[C@H](CC(C)C)N(C)C(=O)C[C@@H](C(=O)N(C)C)N(C)C(=O)[C@H](C2CCCC2)N(C)C(=O)C2(CCCC2)NC(=O)[C@H](CCc2ccncc2)N(C)C(=O)[C@H](CCc2ccc(C(F)(F)F)c(Cl)c2)NC(=O)CN(C)C(=O)[C@H](CC2CCCCC2)N(C)C(=O)[C@@H]2CCN2C(=O)[C@H](C)N(C)C1=O [Compound 1881] ([NMeL]I[NMeA][Aze][NMeCha][Sar][hPhe(3-Cl-4-CF3)][X3][Ac5c][NMeGly(cPent)][NMeD]-NMe2; lactam N-11) | 0.0014 | 0.05 to 0.1
6 | CC[C@H](C)[C@@H]1NC(=O)[C@H](CC)N(C)C(=O)C[C@@H](C(=O)N2CCOCC2)N(C)C(=O)[C@H](C2CCCCC2)N(C)C(=O)C2(CCCC2)NC(=O)[C@@H]2CCCN2C(=O)[C@H](CCc2ccc(C(F)(F)F)c(Cl)c2)NC(=O)CN(C)C(=O)[C@H](Cc2ccc(C(F)(F)F)cc2)N(C)C(=O)CN(C)C(=O)CN(C)C1=O [Compound 1884] ([NMeAbu]I[Sar][Sar][NMePhe(4-CF3)][Sar][hPhe(3-Cl-4-CF3)]P[Ac5c][NMeChg][NMeD]-Morpholide; lactam N-11) | 0.00041 | 0.02 to 0.05
7 | CC[C@H](C)[C@@H]1NC(=O)[C@H](CC)N(C)C(=O)C[C@@H](C(=O)N2CCCC2)N(C)C(=O)[C@H](C2CCCCC2)N(C)C(=O)C2(CCCC2)NC(=O)[C@@H]2CCCN2C(=O)[C@H](CCc2ccc(C(F)(F)F)c(Cl)c2)NC(=O)CN(C)C(=O)[C@H](Cc2ccc(C(F)(F)F)cc2)N(C)C(=O)CN(C)C(=O)CN(C)C1=O [Compound 1890] ([NMeAbu]I[Sar][Sar][NMePhe(4-CF3)][Sar][hPhe(3-Cl-4-CF3)]P[Ac5c][NMeChg][NMeD]-Pyrrolidide; lactam N-11) | 0.00055 | 0.02 to 0.05
8 | CC[C@H](C)[C@@H]1NC(=O)[C@H](CC(C)C)N(C)C(=O)C[C@@H](C(=O)N(C)C)N(C)C(=O)[C@H](C2CCCC2)N(C)C(=O)C2(CCCC2)NC(=O)[C@H](CCc2cccnc2)N(C)C(=O)[C@H](CCc2ccc(C(F)(F)F)c(Cl)c2)NC(=O)CN(C)C(=O)[C@H](CC2CCCCC2)N(C)C(=O)[C@@H]2CCN2C(=O)[C@H](C)N(C)C1=O [Compound 1892] ([NMeL]I[NMeA][Aze][NMeCha][Sar][hPhe(3-Cl-4-CF3)][X11][Ac5c][NMeGly(cPent)][NMeD]-NMe2; lactam N-11) | 0.0015 | 0.05 to 0.1
9 | CCCOC[C@H]1C(=O)N(C)CC(=O)N[C@@H](CCc2ccc(C(F)(F)F)c(Cl)c2)C(=O)N2CCC[C@H]2C(=O)NC2(CCCC2)C(=O)N(C)[C@@H](C2CCCCC2)C(=O)N(C)[C@H](C(=O)N2CCOCC2)CC(=O)N(C)[C@@H](CC)C(=O)N[C@@H]([C@@H](C)CC)C(=O)N(C)CC(=O)N(C)CC(=O)N1C [Compound 1896] ([NMeAbu]I[Sar][Sar][NMeS](Propyl)[Sar][hPhe(3-Cl-4-CF3)]P[Ac5c][NMeChg][NMeD]-Morpholide; lactam N-11) | 0.00049 | 0.1 to 0.5
